From US20070185161A1, “Bicyclic substituted indole-derivative steroid hormone nuclear receptor modulators” (priority 2004, published 2007)

What follows are compounds tested against T1, human GR (glucocorticoid receptor) (Homo sapiens, UniProt P04150) (assay: Alternative Binding Assay Protocol (Method 2), GR). Settings: 3H-dexamethasone, 293-GR lysate, racemic mixture unless otherwise indicated.
T1 construct: expressed in transfected cells; host or cells: 293 cells
T1 sequence (P04150 1-777): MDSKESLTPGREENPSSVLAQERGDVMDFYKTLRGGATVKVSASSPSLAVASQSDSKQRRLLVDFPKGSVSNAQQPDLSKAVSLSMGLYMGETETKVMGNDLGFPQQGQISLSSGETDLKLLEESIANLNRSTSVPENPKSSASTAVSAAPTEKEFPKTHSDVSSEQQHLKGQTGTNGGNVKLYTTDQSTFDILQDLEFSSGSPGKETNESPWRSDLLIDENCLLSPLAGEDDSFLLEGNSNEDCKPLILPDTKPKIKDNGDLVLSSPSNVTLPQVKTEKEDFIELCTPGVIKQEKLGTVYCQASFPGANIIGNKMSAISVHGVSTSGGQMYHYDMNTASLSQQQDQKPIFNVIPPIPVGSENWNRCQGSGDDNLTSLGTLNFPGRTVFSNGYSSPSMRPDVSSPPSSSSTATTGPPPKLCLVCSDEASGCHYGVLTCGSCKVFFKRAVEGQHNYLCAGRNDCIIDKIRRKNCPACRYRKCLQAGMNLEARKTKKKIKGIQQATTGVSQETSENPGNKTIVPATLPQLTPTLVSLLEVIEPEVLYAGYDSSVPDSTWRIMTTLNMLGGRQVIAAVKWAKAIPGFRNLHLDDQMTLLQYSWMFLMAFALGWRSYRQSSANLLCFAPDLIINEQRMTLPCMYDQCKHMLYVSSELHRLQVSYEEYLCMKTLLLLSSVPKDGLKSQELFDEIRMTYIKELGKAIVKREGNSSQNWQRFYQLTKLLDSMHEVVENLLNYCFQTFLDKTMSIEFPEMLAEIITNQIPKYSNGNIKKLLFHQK
Experimental: Cell lysates from 293 cells overexpressing human GR (glucocorticoid receptor), AR (androgen receptor), MR (mineralocorticoid receptor) or PR (progesterone receptor) are used for competition binding assays to determine Ki values for test compounds. Briefly, competition binding assays are run in a buffer containing 20 mM Hepes, pH 7.6, 0.2 mM EDTA, 75 mM NaCl, 1.5 mM MgCl2, 20% glycerol, 20 mM sodium molybdate, 0.2 mM DTT, 20 ug/ml aprotinin and 20 ug/ml leupeptin, using either 0.3 nM ^3H-dexamethasone for GR binding, 0.36 nM ^3H-methyltrienolone for AR binding, 0.25 nM ^3H-aldosterone for MR binding, or 0.29 nM ^3H-methyltrienolone for PR binding, and either 20 ug 293-GR lysate, 22 ug 293-AR lysate, 20 ug 293-MR lysate or 40 ug 293-PR lysate per well. Competing compounds are added at various concentraions in half-log increments. Non-specific binding is determined in the presence of 500 nM dexamethasone for GR binding, 500 nM aldosterone for MR binding, or 500 nM methyltrienolone for AR and PR binding,. The binding reaction (140 μl) is incubated for overnight at […], then 70 μl of cold charcoal-dextran buffer (containing per 50 ml of assay buffer, 0.75 g of charcoal and 0.25 g of dextran) is added to each reaction. Plates are mixed 8 minutes on an orbital shaker at 4° C. Plates are then centrifuged at 3,000 rpm at 4° C. for 10 minutes. An aliquot of 120 μl of the mix is transferred to another 96-well plate and 175 μl of Wallac Optiphase “Hisafe 3” scintillation fluid is added to each well. Plates are sealed and shaken vigorously on an orbital shaker. After an incubation of 2 hrs, plates are read in a Wallac Microbeta counter. The data is used to calculate an IC50 and % Inhibition at 10 μM. The Kd for ^3H-dexamethasone for GR binding, ^3H-methyltrienolone for AR binding, ^3H-aldosterone for MR binding, or ^3H-methyltrienolone for PR binding, is determined by saturation binding. The IC50 values for compounds are converted to Ki using Cheng-Prusoff equation and the Kd determined by saturation binding assay.

Structure (SMILES)	Ki [nM]
CS(=O)(=O)Nc1cccc2c(C3(C4CC4)CCc4cc(F)ccc43)c[nH]c12 (single isomer, unassigned) [Example 39A, N-[3-(1-Cyclopropyl-5-fluoro-indan-1-yl)-1H-indol-7-yl]-methanesulfonamide]	≤ 500
CC1(c2c[nH]c3c(NS(C)(=O)=O)cccc23)CCOc2cc(F)ccc21 (single isomer, unassigned) [Example 34B, N-[3-(7-Fluoro-4-methyl-chroman-4-yl)-1H-indol-7-yl]-methanesulfonamide]	≤ 500
CC1(c2c[nH]c3c(NS(C)(=O)=O)cccc23)CCc2cc(F)cc(F)c21 (single isomer, unassigned) [Example 22B, N-[3-(5,7-Difluoro-1-methyl-indan-1-yl)-1H-indol-7-yl]-methanesulfonamide]	≤ 500
CCC1(c2c[nH]c3c(N)cccc23)CCc2cc(F)ccc21 (centres unmarked) [Example 14, 3-(1-Ethyl-5-fluoro-indan-1-yl)-1H-indol-7-ylamine]	≤ 1000
CCC1(c2c[nH]c3c(NS(C)(=O)=O)cccc23)CCOc2cc(F)cc(F)c21 (single isomer, unassigned) [Example 36A, N-[3-(4-Ethyl-5,7-difluoro-chroman-4-yl)-1H-indol-7-yl]-methanesulfonamide]	≤ 500
CS(=O)(=O)Nc1cccc2c(C3(C4CC4)CCc4cc(F)ccc43)c[nH]c12 (racemic) [Example 39, N-[3-(1-Cyclopropyl-5-fluoro-indan-1-yl)-1H-indol-7-yl]-methanesulfonamide]	≤ 500
CCC1(c2c[nH]c3c(NC(=O)OC)cccc23)CCc2cc(F)ccc21 (centres unmarked) [Example 15, [3-(1-Ethyl-5-fluoro-indan-1-yl)-1H-indol-7-yl]-carbamic acid methyl ester]	≤ 500
CCC1(c2c[nH]c3c(NS(=O)(=O)N(C)C)cccc23)CCc2cc(F)ccc21 (centres unmarked) [Example 17]	≤ 500
CNCCCC1(c2c[nH]c3c(NS(C)(=O)=O)cccc23)CCc2cc(F)ccc21 (centres unmarked) [Example 42, N-{3-[5-Fluoro-1-(3-methylamino-propyl)-indan-1-yl]-1H-indol-7-yl}-methanesulfonamide]	≤ 500
CCC1(c2c[nH]c3c(NS(C)(=O)=O)cccc23)CCOc2cc(F)ccc21 (racemic) [Example 35, N-[3-(4-Ethyl-7-fluoro-chroman-4-yl)-1H-indol-7-yl]-methanesulfonamide]	≤ 500
CCC1(c2c[nH]c3c(NS(C)(=O)=O)cccc23)CCOc2cc(F)ccc21 (single isomer, unassigned) [Example 35B, N-[3-(4-Ethyl-7-fluoro-chroman-4-yl)-1H-indol-7-yl]-methanesulfonamide]	≤ 500
CCC1(c2c[nH]c3c(NS(=O)(=O)CC)cccc23)CCc2cc(F)ccc21 (centres unmarked) [Example 19, Ethanesulfonic acid [3-(1-ethyl-5-fluoro-indan-1-yl)-1H-indol-7-yl]-amide]	≤ 500
CCC1(c2c[nH]c3c(NC(C)=O)cccc23)CCc2cc(F)ccc21 (centres unmarked) [Example 16, N-[3-(1-ethyl-5-fluoro-indan-1-yl)-1H-indol-7-yl]-acetamide]	≤ 500
CCC1(c2c[nH]c3c(NS(C)(=O)=O)cccc23)CCOc2cc(F)cc(F)c21 (single isomer, unassigned) [Example 36B, N-[3-(4-Ethyl-5,7-difluoro-chroman-4-yl)-1H-indol-7-yl]-methanesulfonamide]	≤ 500

Further lines, results first:

Ki [nM]	Structure (SMILES)
≤ 500	CCC1(c2c[nH]c3c(NS(C)(=O)=O)cccc23)CCOc2cc(F)cc(F)c21 (racemic) [Example 36, N-[3-(4-Ethyl-5,7-difluoro-chroman-4-yl)-1H-indol-7-yl]-methanesulfonamide]
≤ 500	CCC1(c2c[nH]c3c([N+](=O)[O-])cccc23)CCc2cc(F)ccc21 (centres unmarked) [Example 2, 3-(1-Ethyl-5-fluoro-indan-1-yl)-7-nitro-1H-indole]
≤ 500	CS(=O)(=O)Nc1cccc2c(C3(CCCI)CCc4cc(F)ccc43)c[nH]c12 (centres unmarked) [Example 41, N-{3-[5-Fluoro-1-(3-iodo-propyl)-indan-1-yl]-1H-indol-7-yl}-methanesulfonamide]
≤ 500	CS(=O)(=O)Nc1cccc2c(C3(CCCN4CCOCC4)CCc4cc(F)ccc43)c[nH]c12 (centres unmarked) [Example 44, N-{3-[5-Fluoro-1-(3-morpholin-4-yl-propyl)-indan-1-yl]-1H-indol-7-yl}-methanesulfonamide]
≤ 500	CCC1(c2c[nH]c3c(NS(C)(=O)=O)cccc23)CCOc2cc(F)ccc21 (single isomer, unassigned) [Example 35A, N-[3-(4-Ethyl-7-fluoro-chroman-4-yl)-1H-indol-7-yl]-methanesulfonamide]
≤ 500	CS(=O)(=O)Nc1cccc2c(C3(CCCO)CCc4cc(F)ccc43)c[nH]c12 (single isomer, unassigned) [Example 40B, N-{3-[5-Fluoro-1-(3-hydroxy-propyl)-indan-1-yl]-1H-indol-7-yl}-methanesulfonamide]
≤ 500	CS(=O)(=O)Nc1cccc2c(C3(CCCO)CCc4cc(F)ccc43)c[nH]c12 (single isomer, unassigned) [Example 40A, N-{3-[5-Fluoro-1-(3-hydroxy-propyl)-indan-1-yl]-1H-indol-7-yl}-methanesulfonamide]
≤ 500	CS(=O)(=O)Nc1cccc2c(C3(C4CC4)CCc4cc(F)ccc43)c[nH]c12 (single isomer, unassigned) [Example 39B, N-[3-(1-Cyclopropyl-5-fluoro-indan-1-yl)-1H-indol-7-yl]-methanesulfonamide]
≤ 500	CC1(c2c[nH]c3c(NS(C)(=O)=O)cccc23)CCc2cc(F)cc(F)c21 (racemic) [Example 22, N-[3-(5,7-Difluoro-1-methyl-indan-1-yl)-1H-indol-7-yl]-methanesulfonamide]
≤ 500	CCC1(c2cn(C)c3c(NS(C)(=O)=O)cccc23)CCc2cc(F)ccc21 (centres unmarked) [Example 5, N-[3-(1-Ethyl-5-fluoro-indan-1-yl)-1-methyl-1H-indol-7-yl]-methanesulfonamide]
≤ 500	CC1(c2c[nH]c3c(NS(C)(=O)=O)cccc23)CCOc2cc(F)ccc21 (single isomer, unassigned) [Example 34A, N-[3-(7-Fluoro-4-methyl-chroman-4-yl)-1H-indol-7-yl]-methanesulfonamide]
≤ 500	CS(=O)(=O)Nc1cccc2c(C3(CCCO)CCc4cc(F)ccc43)c[nH]c12 (racemic) [Example 40, N-{3-[5-Fluoro-1-(3-hydroxy-propyl)-indan-1-yl]-1H-indol-7-yl}-methanesulfonamide]
≤ 500	CC1(c2c[nH]c3c(NS(C)(=O)=O)cccc23)CCOc2cc(F)ccc21 (racemic) [Example 34, N-[3-(7-Fluoro-4-methyl-chroman-4-yl)-1H-indol-7-yl]-methanesulfonamide]
≤ 500	CC1(c2c[nH]c3c(NS(C)(=O)=O)cccc23)CCc2cc(F)cc(F)c21 (single isomer, unassigned) [Example 22A, N-[3-(5,7-Difluoro-1-methyl-indan-1-yl)-1H-indol-7-yl]-methanesulfonamide]
≤ 500	CCC1(c2c[nH]c3c(NS(=O)(=O)c4ccccc4)cccc23)CCc2cc(F)ccc21 (centres unmarked) [Example 18, N-[3-(1-ethyl-5-fluoro-indan-1-yl)-1H-indol-7-yl]-benzenesulfonamide]
